Where two headings read alike, the source gives them in different places.

One assay addresses T1, 5-HT1A receptor (Sus scrofa, UniProt A0A4X1UTF5).
T1 construct: Swine hippocampus was homogenized in a 50 mM Tris-Hcl buffer; from tissue; host or cells: swine hippocampus, membrane fraction
T1 sequence (A0A4X1UTF5 1-422): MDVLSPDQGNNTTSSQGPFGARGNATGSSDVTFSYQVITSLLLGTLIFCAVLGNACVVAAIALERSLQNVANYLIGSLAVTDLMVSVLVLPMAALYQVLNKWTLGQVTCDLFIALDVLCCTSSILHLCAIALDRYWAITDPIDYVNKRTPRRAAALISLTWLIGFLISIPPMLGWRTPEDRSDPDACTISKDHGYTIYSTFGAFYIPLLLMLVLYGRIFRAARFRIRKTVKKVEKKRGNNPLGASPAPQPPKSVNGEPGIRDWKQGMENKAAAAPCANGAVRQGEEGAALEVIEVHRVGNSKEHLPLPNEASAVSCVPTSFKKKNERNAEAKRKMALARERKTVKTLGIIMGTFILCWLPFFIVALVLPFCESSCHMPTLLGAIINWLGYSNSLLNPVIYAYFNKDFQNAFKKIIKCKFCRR
The assay can be described thus: Affinity for serotonin 1A receptor: inhibition of [3H]MPPF binding in swine hippocampal membrane fraction. The note with it: for IC50: swine hippocampal membrane, 37°C 30 min; for L/H ratio: low affinity IC50 divided by high affinity IC50, 1 or smaller = no intrinsic activity, 2 or greater = intrinsic activity. The source says:
(1) The affinity of a test substance for a 5-HT1A receptor was examined by an inhibition experiment, in which the inhibitory effect of the test substance against the binding of [^3H]-4-(2′-methoxy)phenyl-1-(2′-(N-2″-pyridinyl)-p-fluorobenzamido)ethyl-piperazine (MPPF) that selectively binds to the 5-HT1A receptor in a swine hippocampal membrane fraction was examined. The 5-HT1A receptor that is a G-protein binding receptor becomes a G-protein binding state with addition of MgCl2. In contrast, it becomes a G-protein non-binding state with addition of guanylylimido diphosphate (Gpp(NH)p). […] Thus, both the affinity of a test substance to the receptor that was in a state of not binding to the G-protein and the affinity of the test substance to the receptor that was in a state of binding to the G-protein were obtained. Then, the obtained values were compared to each other, so as to estimate the level of the intrinsic activity of the test substance. Theoretically, when the value (L/H) obtained by dividing the affinity of a test substance to the receptor that is in a low affinity state (IC50 value) by the affinity of a test substance to the receptor that is in a high affinity state (IC50 value) is 1 or less, the intrinsic activity thereof is zero. The greater this value, the higher the intrinsic activity that can be obtained.
Swine hippocampus was homogenized in a 50 mM Tris-Hcl buffer (pH 7.4; hereinafter referred to as buffer A) that had been cooled on ice. The suspension was centrifuged at 40,000×g for 15 minutes. The obtained pellet was suspended in buffer solution A, and the thus obtained solution was then centrifuged at 40,000×g for 15 minutes. The same operation was repeated 2 or 3 times. The finally obtained pellet was suspended in a buffer solution A in an amount 10 times the wet weight of the swine hippocampus, so as to obtain a membrane fraction. The obtained membrane fraction was stored at −80° C. until use.
A mixture (0.5 ml) used for incubation comprised an appropriate amount of the membrane fraction, a test substance with a desired concentration, MgCl2 (final concentration: 10 mM) or Gpp(NH)p (final concentration: 1 mM), [^3H]MPPF (final concentration: 0.5 nM), dimethyl sulfoxide (final concentration: 1% (v/v)), and a 50 mM Tris-Hcl buffer (pH 7.4). The reaction was initiated with addition of the membrane fraction, and the mixture was incubated at 37° C. for 30 minutes. After completion of the incubation, the mixture was subjected to vacuum filtration with a glass filter, using Cell Harvester. The filter was washed with buffer solution A that had been cooled on ice. Thereafter, radioactivity binding to the receptor was measured with a liquid scintillation counter. Non-specific binding was defined as binding detected in the presence of 10 μM WAY-100,635.

A further assay concerns the target T2, serotonin 1A receptor (Mus musculus, UniProt Q64264).
T2 construct: into the rectum of CD-1 (ICR) male mice (25-45 g); from tissue; host or cells: living CD-1 (ICR) male mice (in vivo)
T2 sequence (Q64264 1-421): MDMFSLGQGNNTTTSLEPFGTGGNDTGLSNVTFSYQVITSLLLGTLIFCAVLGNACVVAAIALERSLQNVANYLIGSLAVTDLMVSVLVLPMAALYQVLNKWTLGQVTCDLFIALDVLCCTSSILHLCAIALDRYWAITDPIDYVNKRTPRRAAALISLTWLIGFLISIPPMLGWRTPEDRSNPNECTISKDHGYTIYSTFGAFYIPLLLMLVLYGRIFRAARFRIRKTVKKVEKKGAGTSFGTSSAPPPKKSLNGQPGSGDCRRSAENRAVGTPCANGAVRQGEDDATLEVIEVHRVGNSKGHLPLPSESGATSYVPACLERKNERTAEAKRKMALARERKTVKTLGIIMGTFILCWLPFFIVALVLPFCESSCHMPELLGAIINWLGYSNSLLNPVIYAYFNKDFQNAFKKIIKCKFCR
Nature of the assay: Antagonistic effect on serotonin 1A receptor agonist (8-OH-DPAT)-induced hypothermia in mouse. In kind it is in vivo. The note with it: CD-1 (ICR) male mice; inhibition of hypothermia by 8-OH-DPAT 0.5 mg/kg sc; test substance 15 minutes before agonist. Here is the method:
(1) A thermistor probe was inserted at a depth of approximately 2 cm into the rectum of CD-1 (ICR) male mice (25-45 g), so as to measure the body temperature thereof. Body temperature is decreased by subcutaneous administration of serotonin 1A receptor agonist (8-hydroxy-dipropylaminotetralin (8-OH-DPAT) 0;5 mg/kg. Since a serotonin 1A antagonist inhibits such action, the antagonistic effect of a test substance to a serotonin 1A receptor was evaluated using the inhibitory effect of the hypothermia as an index. The test results are shown in Table 2 indicated below. A test substance was administered 15 minutes before the administration of the serotonin 1A agonist. A serotonin 1A partial agonist alone decreases the body temperature, depending on the degree of the agonistic action thereof. In addition, it has a weak antagonistic effect on 8-OH-DPAT-induced hypothermia.

The mark [1] stands for this setting: [3H]MPPF 0.5 nM, receptor in high affinity (G-protein binding, MgCl2 10 mM) state, read-out: High affinity IC50.
[2] abbreviates: [3H]MPPF 0.5 nM, receptor in low affinity (G-protein non-binding, Gpp(NH)p 1 mM) state, read-out: Low affinity IC50.

In the case of `COc1ccc2ccccc2c1CCN1CCC(n2ccc3ccc(C(N)=O)cc32)CC1` [Compound 44, 1-{1-[2-(2-methoxynaphthalen-1-yl)ethyl]piperidin-4-yl}-1H-indole-6-carboxamide], the values for the IC50 on 5-HT1A receptor (setting [1]) and on 5-HT1A receptor (setting [2]) were 0.4 nM and 0.47 nM, respectively. Further, the L/H ratio on 5-HT1A receptor came to 1.2. Moreover, the ED50 at serotonin 1A receptor was 0.41 mg/kg, sc.
As for `COc1ccc2c(c1CCN1CCC(n3ccc4ccc(C(N)=O)cc43)CC1)OCCO2` [Compound 32, 1-{1-[2-(6-methoxy-2,3-dihydrobenz[1,4]dioxin-5-yl)ethyl]piperidin-4-yl}-1H-indole-6-carboxamide], the values for the IC50 on 5-HT1A receptor (setting [1]) and at 5-HT1A receptor (setting [2]) were 0.26 nM and 0.25 nM, respectively. For the same molecule, the L/H ratio at 5-HT1A receptor was 1. Moreover, the ED50 at serotonin 1A receptor was 0.04 mg/kg, sc.
As for `COc1cc2c(cc1CCN1CCC(n3ccc4ccc(C(N)=O)cc43)CC1)C(=O)N(C)CCO2` [Compound 9, 1-{1-[2-(8-methoxy-4-methyl-5-oxo-2,3,4,5-tetrahydrobenzo[f][1,4]oxazepin-7-yl)ethyl]piperidin-4-yl}-1H-indole-6-carboxamide], the IC50 on 5-HT1A receptor (setting [1]) turned out to be 0.17 nM; on 5-HT1A receptor (setting [2]), 0.13 nM. Also, at 5-HT1A receptor, the L/H ratio is on record as 0.8. The ED50 on serotonin 1A receptor is 0.3 mg/kg, sc.
For the molecule `COc1cc2c(cc1CCN1CCC(n3ccc4ccc(C(N)=O)cc43)CC1)N(C(C)=O)CCC2` [Compound 52, 1-{1-[2-(1-acetyl-6-methoxy-1,2,3,4-tetrahydroquinolin-7-yl)ethyl]piperidin-4-yl}-1H-indole-6-carboxamide], the IC50 at 5-HT1A receptor (setting [1]) worked out at 0.22 nM; on 5-HT1A receptor (setting [2]) it was 0.2 nM. Also, the L/H ratio on 5-HT1A receptor is given as 0.9. At serotonin 1A receptor, the ED50 is reported as 0.5 mg/kg, sc.
Turning to `COc1ccc2c(c1CCN1CCC(n3ccc4ccc(C(N)=O)cc43)CC1)CCCN2C(C)=O` [Compound 54, 1-{1-[2-(1-acetyl-6-methoxy-1,2,3,4-tetrahydroquinolin-5-yl)ethyl]piperidin-4-yl}-1H-indole-6-carboxamide], the IC50 at 5-HT1A receptor (setting [1]) worked out at 0.18 nM; on 5-HT1A receptor (setting [2]), 0.13 nM. For the same molecule, the L/H ratio on 5-HT1A receptor is 0.7. Also, at serotonin 1A receptor, the ED50 is 0.84 mg/kg, sc.
For `CCN1C(=O)CCc2cc(OC)c(CCN3CCC(n4ccc5ccc(C(N)=O)cc54)CC3)cc21` [Compound 59, 1-{1-[2-(1-ethyl-6-methoxy-2-oxo-1,2,3,4-tetrahydroquinolin-7-yl)ethyl]piperidin-4-yl}-1H-indole-6-carboxamide], the IC50 was determined as 0.19 nM at 5-HT1A receptor (setting [1]) and 0.12 nM on 5-HT1A receptor (setting [2]). Moreover, the L/H ratio on 5-HT1A receptor turned out to be 0.6. Besides, the ED50 at serotonin 1A receptor was 0.3 mg/kg, sc.
As for `COc1cc2c(cc1CCN1CCC(n3ccc4ccc(C(N)=O)cc43)CC1)C(=O)N(C)CC2` [Compound 33, 1-{1-[2-(6-methoxy-2-methyl-1-oxo-1,2,3,4-tetrahydroisoquinoline-7-yl)ethyl]piperidin-4-yl}-1H-indole-6-carboxamide], the IC50 amounted to 0.17 nM at 5-HT1A receptor (setting [1]) and 0.12 nM on 5-HT1A receptor (setting [2]). Also, at 5-HT1A receptor, the L/H ratio is 0.7. In addition, at serotonin 1A receptor, the ED50 was 0.12 mg/kg, sc.
Consider `COc1ccc2c(c1CCN1CCC(n3ccc4ccc(C(N)=O)cc43)CC1)OCCC2=O` [Compound 47, 1-{1-[2-(7-methoxy-4-oxochroman-8-yl)ethyl]piperidin-4-yl}-1H-indole-6-carboxamide], for which the IC50 on 5-HT1A receptor (setting [1]) and at 5-HT1A receptor (setting [2]) was 0.23 nM each time. For the same molecule, the L/H ratio at 5-HT1A receptor was found to be 1. Also, on serotonin 1A receptor, the ED50 is given as 0.21 mg/kg, sc.
On to `COc1ccc2c(C)noc2c1CCN1CCC(n2ccc3ccc(C(N)=O)cc32)CC1` [Compound 1, 1-{1-[2-(6-methoxy-3-methylbenz[d]isoxazol-7-yl)ethyl]piperidin-4-yl}-1H-indole-6-carboxamide], for which the IC50 on 5-HT1A receptor (High affinity IC50, [3H]MPPF 0.5 nM, receptor in high affinity (G-protein binding, MgCl2 10 mM) state) was 0.16 nM; on 5-HT1A receptor (Low affinity IC50, [3H]MPPF 0.5 nM, receptor in low affinity (G-protein non-binding, Gpp(NH)p 1 mM) state) it was 0.26 nM. Moreover, the L/H ratio on 5-HT1A receptor was 1.6. Besides, the ED50 at serotonin 1A receptor is 0.3 mg/kg, sc.
As for `COc1ccc2c(c1CCN1CCC(n3ccc4ccc(C(N)=O)cc43)CC1)CCC2=O` [Compound 25, 1-{1-[2-(5-methoxy-1-oxoindan-4-yl)ethyl]piperidin-4-yl}-1H-indole-6-carboxamide], the IC50 was 0.18 nM at 5-HT1A receptor (setting [1]) and 0.16 nM on 5-HT1A receptor (setting [2]). On 5-HT1A receptor, the L/H ratio is 0.9. In addition, the ED50 at serotonin 1A receptor is reported as 0.1 mg/kg, sc.
Turning to `COc1cc2nc(C)sc2cc1CCN1CCC(n2ccc3ccc(C(N)=O)cc32)CC1` [Compound 28, 1-{1-[2-(5-methoxy-2-methylbenzothiazol-6-yl)ethyl]piperidin-4-yl}-1H-indole-6-carboxamide], the IC50 is 0.14 nM on 5-HT1A receptor (setting [1]) and 0.19 nM on 5-HT1A receptor (setting [2]). The L/H ratio at 5-HT1A receptor was 1.4. Moreover, the ED50 at serotonin 1A receptor was 0.02 mg/kg, sc.
For the molecule `COc1cc2c(cc1CCN1CCC(n3ccc4ccc(C(N)=O)cc43)CC1)N(C)CCC2` [Compound 53, 1-{1-[2-(6-methoxy-1-methyl-1,2,3,4-tetrahydroquinolin-7-yl)ethyl]piperidin-4-yl}-1H-indole-6-carboxamide], the IC50 came out at 0.31 nM at 5-HT1A receptor (setting [1]) and 0.46 nM at 5-HT1A receptor (setting [2]). The L/H ratio on 5-HT1A receptor came out at 1.5. At serotonin 1A receptor, the ED50 is listed as 0.3 mg/kg, sc.
For the molecule `CCn1c(=O)oc2cc(OC)c(CCN3CCC(n4ccc5ccc(C(N)=O)cc54)CC3)cc21` [Compound 60, 1-{1-[2-(3-ethyl-6-methoxy-2-oxo-2,3-dihydrobenzoxazol-5-yl)ethyl]piperidin-4-yl}-1H-indole-6-carboxamide], the figures for the IC50 at 5-HT1A receptor (setting [1]) and on 5-HT1A receptor (setting [2]) were 0.28 nM and 0.24 nM, respectively. In addition, on 5-HT1A receptor, the L/H ratio is on record as 0.9. The ED50 at serotonin 1A receptor is reported as 0.52 mg/kg, sc.
